# Measured values taken from patent publication US20140031368A1, “SELECTIVE HDAC INHIBITORS” (THE TRUSTEES OF COLUMBIA UNIVERSITY IN THE CITY OF NEW YORK, priority 2010, published 2014).
# Assays:
# [1] = target: T1, HDAC6 (Homo sapiens, UniProt Q9UBN7); test: Fluorogenic HDAC assay kit (BPS Bioscience), HDAC6 inhibition; format: biochemical; settings: for IC50: purified/recombinant enzyme, inhibitor range 10,000-0.1 nM; for IC50 0 ratio (1/6): ratio IC50 HDAC1 / IC50 HDAC6
# T1 sequence (Q9UBN7 1-1215): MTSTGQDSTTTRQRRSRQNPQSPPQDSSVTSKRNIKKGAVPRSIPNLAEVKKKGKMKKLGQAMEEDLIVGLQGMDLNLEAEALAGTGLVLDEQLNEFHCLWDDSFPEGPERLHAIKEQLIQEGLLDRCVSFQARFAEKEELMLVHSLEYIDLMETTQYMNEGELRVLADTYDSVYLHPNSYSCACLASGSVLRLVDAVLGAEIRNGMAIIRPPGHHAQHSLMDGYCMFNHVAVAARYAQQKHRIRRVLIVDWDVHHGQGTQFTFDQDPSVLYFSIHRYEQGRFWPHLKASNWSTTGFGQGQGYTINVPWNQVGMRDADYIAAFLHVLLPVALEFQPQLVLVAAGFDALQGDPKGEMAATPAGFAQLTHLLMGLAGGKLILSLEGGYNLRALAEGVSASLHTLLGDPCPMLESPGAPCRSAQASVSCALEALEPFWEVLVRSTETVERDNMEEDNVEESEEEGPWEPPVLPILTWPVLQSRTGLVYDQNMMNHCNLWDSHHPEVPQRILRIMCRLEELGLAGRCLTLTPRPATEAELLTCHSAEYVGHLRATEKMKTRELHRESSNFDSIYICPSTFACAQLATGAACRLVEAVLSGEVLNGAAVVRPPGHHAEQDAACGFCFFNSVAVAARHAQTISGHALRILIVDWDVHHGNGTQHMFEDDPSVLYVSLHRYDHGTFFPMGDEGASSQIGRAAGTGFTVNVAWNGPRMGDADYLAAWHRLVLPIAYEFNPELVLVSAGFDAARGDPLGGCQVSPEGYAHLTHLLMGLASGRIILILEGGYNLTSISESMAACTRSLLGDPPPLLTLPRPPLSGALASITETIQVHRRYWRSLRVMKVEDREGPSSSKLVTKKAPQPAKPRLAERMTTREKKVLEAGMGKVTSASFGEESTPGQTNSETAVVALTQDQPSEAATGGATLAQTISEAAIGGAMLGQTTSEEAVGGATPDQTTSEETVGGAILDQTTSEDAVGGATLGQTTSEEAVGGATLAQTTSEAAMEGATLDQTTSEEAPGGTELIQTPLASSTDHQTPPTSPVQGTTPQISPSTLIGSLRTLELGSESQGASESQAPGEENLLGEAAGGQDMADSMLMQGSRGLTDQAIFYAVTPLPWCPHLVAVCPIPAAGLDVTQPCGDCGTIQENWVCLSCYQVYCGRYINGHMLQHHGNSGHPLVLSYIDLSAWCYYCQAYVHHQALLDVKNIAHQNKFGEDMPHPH
# Experimental: (§1) Various compounds were tested in in vitro enzyme assays for their activity in inhibiting HDAC6 and HDAC1. The assays used was a fluorogenic HDAC assay kit (BPS Bioscience, San Diego, Calif.). On a micotiter the HDAC fluorometric substrate containing an aceylated side chain is incubated with a sample containing HDAC activity (purified/recombinant HDAC1 or HDAC6 enzyme). The deacetylation sensitizes the substrate so subsequent treatment with a lysine developer produces a fluorophore that can then be measured using a fluorescence reader. The assay is performed in the absence and presence of the potential inhibitor compound.
# (§2) Follow BPS Bioscience Fluorogenic HDAC Assay Kit (see Example 2). Range of inhibitor compounds tested: 10,000-0.1 nM
# [2] = target: HDAC1 (Homo sapiens, UniProt Q13547); test: Fluorogenic HDAC assay kit (BPS Bioscience), HDAC1 inhibition; format: biochemical; settings: purified/recombinant enzyme; inhibitor range 10,000-0.1 nM
# Sequence of HDAC1 (Q13547 whole entry): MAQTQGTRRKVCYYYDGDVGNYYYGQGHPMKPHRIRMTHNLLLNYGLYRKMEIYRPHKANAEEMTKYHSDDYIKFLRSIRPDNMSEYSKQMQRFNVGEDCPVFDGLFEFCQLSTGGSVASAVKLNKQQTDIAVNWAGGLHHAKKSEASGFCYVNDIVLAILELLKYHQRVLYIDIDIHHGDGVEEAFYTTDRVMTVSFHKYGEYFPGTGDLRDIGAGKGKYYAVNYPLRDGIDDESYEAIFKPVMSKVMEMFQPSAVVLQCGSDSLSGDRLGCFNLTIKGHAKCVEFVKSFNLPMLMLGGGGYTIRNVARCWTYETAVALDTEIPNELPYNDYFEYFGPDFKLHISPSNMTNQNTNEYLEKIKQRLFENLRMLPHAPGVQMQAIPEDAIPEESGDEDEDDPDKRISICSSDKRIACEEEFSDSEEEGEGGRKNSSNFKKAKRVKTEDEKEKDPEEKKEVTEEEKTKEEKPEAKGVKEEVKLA
# Experimental: as §1, §2
# [3] = test system: HDAC genes in NPC-26 fibroblasts; test: qRT-PCR of HDAC gene expression in NPC-26 fibroblasts; format: cell-based, human; settings: NPC-26 fibroblasts treated with HDAC inhibitor; FIG. 3B
# [4] = test system: NP-C mutant fibroblasts; format: cell-based, human
# [5] = test system: NP-C fibroblasts; test: Esterification of LDL-derived cholesterol (cholesteryl [3H]oleate formation) in NP-C fibroblasts; format: cell-based, human; settings: 24 h treatment with 5 μM SAHA after 4 d in LPDS; FIG. 4B
# Experimental: Cells were grown for 4 d in LPDS, followed by a 24 h treatment with or without 5 μM SAHA, the last 4 h of which included LDL plus [^3H]oleate. *P<0.05, treated vs. untreated cells by two-tailed Student's t-test.
SMILES,IC50 [1] [nM],IC50 0 ratio (1/6) [1],IC50 [2] [nM],HDAC gene expression (qRT-PCR) [3],lysosomal accumulation of unesterified cholesterol (filipin) [4],esterification of LDL-derived cholesterol (percent cholesteryl [3H]oleate formation relative to total lipids) [5]
"O=C(CCCCCCC(=O)Nc1ccc(C(C(=O)Nc2ccccc2)C(=O)Nc2ccccc2)cc1)NO [Compound 9, N^1-(4-(1,3-Dioxo-1,3-bis(phenylamino)propan-2-yl)phenyl)-N^8-hydroxyoctanediamide]",3,42.9,129,–,–,–
"O=C(CCCCCC(=O)Nc1ccc(C(C(=O)Nc2cccc3cccnc23)C(=O)Nc2cccc3cccnc23)cc1)NO [Compound 31, N^1-(4-(1,3-dioxo-1,3-bis(quinolin-8-ylamino)propan-2-yl)phenyl)-N^7-hydroxyheptanediamide]",22,51,1130,–,–,–
"O=C(CCCCCCC(=O)Nc1ccc(C(C(=O)Nc2cccc3cccnc23)C(=O)Nc2cccc3cccnc23)cc1)NO [Compound 6, N^1-(4-(1,3-Dioxo-1,3-bis(quinolin-8-ylamino)propan-2-yl)phenyl)-N^8-hydroxyoctanediamide]",2.25,107,242,–,–,–
"O=C(CCCCCCCC(=O)Nc1ccc(C(C(=O)Nc2cccc3cccnc23)C(=O)Nc2cccc3cccnc23)cc1)NO [Compound 28, N^1-(4-(1,3-dioxo-1,3-bis(quinolin-8-ylamino)propan-2-yl)phenyl)-N^9-hydroxynonanediamide]",57,25,1440,–,–,–
"O=C(CCCCCCC(=O)Nc1ccccc1)NO [SAHA, suberoylanilide hydroxamic acid]",–,–,–,restores expression in the direction of control cells,Reduction in lysosomal accumulation of unesterified cholesterol,Restoration of deficient esterification of LDL-derived cholesterol

# The next lines start with results.
IC50 [1] [nM],IC50 0 ratio (1/6) [1],IC50 [2] [nM],SMILES,HDAC gene expression (qRT-PCR) [3],lysosomal accumulation of unesterified cholesterol (filipin) [4],esterification of LDL-derived cholesterol (percent cholesteryl [3H]oleate formation relative to total lipids) [5]
65.7,10.3,676,CC(C)(C)c1ccc(CNC(=O)CCCCCCCC(=O)NO)cc1 [Compound 78],–,–,–
34.4,3.1,106,CC(C)(C)c1ccc(NC(=O)C(CCCCCC(=O)NO)C(=O)Nc2ccc(C(C)(C)C)cc2)cc1 [Compound 77],–,–,–
4.4,10.6,46.7,CC(C)(C)OC(=O)Nc1ccc(-c2csc(C(=O)NCCCCCCC(=O)NO)c2)cc1 [Compound 79],–,–,–
–,–,38.4,"CC(C)(C)OC(=O)Nc1ccc(-c2cc(C(=O)NCCCCCCC(=O)NO)no2)cc1 [Kozikowski compound, reference compound]",–,–,–
42,58,2450,"O=C(CCCCCCNC(=O)c1ccc(C(F)(C(=O)Nc2cccc3cccnc23)C(=O)Nc2cccc3cccnc23)cc1)NO [Compound 65, 2-Fluoro-2-(4-(7-(hydroxyamino)-7-oxoheptylcarbamoyl)phenyl)-N1,N3-di(quinolin-8-yl)malonamide]",–,–,–
12,87,1040,"O=C(CCCCCCNC(=O)c1ccc(C(C(=O)Nc2cccc3cccnc23)C(=O)Nc2cccc3cccnc23)cc1)NO [Compound 61, 2-(4-(7-(hydroxyamino)-7-oxoheptylcarbamoyl)phenyl)-N1,N3-di(quinolin-8-yl)malonamide]",–,–,–
